Literature values, collected in patent US20040106141A1, “Methods and materials for examining pathways associated with glioblastoma progression” (The Regents of the University of California, priority 2002, published 2004).

Tested on: SKMG-3 cells
Details: unstimulated SKMG-3 cells

## CNc1cc2c(Nc3cccc(Br)c3)ncnc2cn1 [PD158780]
  constitutive phosphorylation of Erk: reduces
GBM cell line with EGFR gene amplification
  constitutive phosphorylation of the receptor (EGFR): reduces
